Data: patent US20100267638A1, “EXOSITE-DIRECTED THROMBIN INHIBITORS” (CLEVELAND STATE UNIVERSITY, priority 2003, published 2010)
Entries after “also recorded” stand apart in the source; their conditions may differ. No end group written: not given here.

Assays:
[1] = molecular target: T1, active-site-immobilized thrombin (Homo sapiens, UniProt P00734); test: Direct binding of the peptides to thrombin-agarose (chromatography); details: 400 μg peptide, 2.5 ml column, elution 2M NaCl
T1 construct: Factor Xa cleaves prothrombin to form thrombin; purchased Haematologic Technologies Inc. (Essex Junction, Vt.)
Method: Direct binding of the peptides to thrombin. Thrombin was immobilized onto agarose through the active site as described. Peptide solutions of HC1-HC5 (SEQ ID NO. 2-6, respectively), D13R (SEQ ID NO. 21), DYDYQ (SEQ ID NO. 11), and P15H (SEQ ID NO. 22) were dissolved in water to a given concentration and then diluted in 20 mM Hepes, 0.1 M NaCl, pH 7.4 in a manner that 400 μg was contained in each starting solution. In control experiments it was determined that the maximum amount of peptide that could be retained by the thrombin-agarose column was 400 μg. Since some of the peptides contain aromatic amino acid residues, their concentration was also measured by optical density.
Mass spectrometry instruments and conditions. The identity of all peptides found in the flow-through or the elution of the thrombin-agarose column was verified by mass spectrometry. Since the peptides were in a buffer solution, we used Liquid Chromatography/Mass Spectrometry (LC/MS) for their identification. In this procedure peptides are first separated from the salt content of the buffer using an HPLC system (HP 1100, HPLC gradient system, Agilent Technologies, Palo Alto Calif.) with a C18 column (1 mm×15 cm, GraceVydac, Hesperia Calif.) with buffers A (0.3% acetic acid in water) and B (0.3% acetic acid in acetonitrile). The elution of the column was monitored with a Micromass Quatro II ESI-Triple Quadrupole Mass Spectrometer (Waters, Milford Mass.). The data were collected using a Compaq Professional Workstation AP200 (Hewlett-Packard, Palo Alto Calif.) and analyzed by the software MassLynx v3.3 (Waters, Milford Mass.).
Direct interaction of hirudin-like peptides from factor tor Va heavy chain With thrombin-agarose. To ascertain that the peptides of interest are inhibitory of prothrombinase activity and contain a binding site for thrombin, the interaction of all peptides with active-site-immobilized thrombin was studied in chromatographic experiments and is shown in FIG. 5. In FIG. 5, small scale chromatography of hirudin-like peptides was performed on a 2.5 ml thrombin-agarose. Each run represents 400 μg of peptide. This amount of peptide was determined to saturate the specific sites of thrombin of the column used (2.5 ml). Elution was performed with 2M NaCl and was started at the point indicated by the arrow (fraction #30). The presence of the peptides in the corresponding fractions was monitored by absorbance at 280 nm (shown on the y axis) and by LC/MS (inset). […] Specifically, these peptides were treated similarly to all other peptides and similar fractions were collected. Aliquots from fractions #7 and #35 from each separate experiment were submitted to LC/MS analysis as described herein (depicted by the hatched arrows at the bottom of the chromatogram). The results from tube #7 from three chromatograms are depicted. The data are presented as % intensity of the signal as a function of the mass of the peptide divided by the charge (m/z). FIG. 5A, HC1 (Mr calculated 1268); FIG. 5B, HC2 (Mr calculated 1132); FIG. 5C, HC5 (Mr calculated 1053). The spectrum of HC1 has two major peaks: at 635.5 and at 424, and one minor peak at 1270 (1268+1). The peak at 635.5 represents the peptide (mass/charge) with two positive charges ([…]) i.e. [(1268+2=1270)]/2=635 whereas, the peak at 424 represents HC1 with three positive charges ([…]) i.e. [(1268+3=1271)]/3=424. […] HC5 spectrum has two major peaks: one at 528 and one at 352. The peak at 528 represents the peptide with two positive charges ([…]) i.e. [(1053+2=1055)]/2=527.5 while, the other peak represents HC5 with three positive charges ([M+31-]^2+) i.e. [(1053+3=1056)]/3=352. The minor peak at 1054 represents the peptide with one charge. It is noteworthy, that in gas phase the number of protons attached to each peptide depends on the number (quantity) of basic residues contained in each peptide. […] Thus, HC1 and HC5 are more likely to bind two or three protons than HC2. […]

[2] = Clotting time as a function of peptide concentration (FIG. 12); details: peptide 500 nM
Description: FIG. 12 is a graph illustrating clotting time as a function of concentration of various peptides of interest as follows: DYDYQ (SEQ ID NO. 11) (filled squares); DYDYQ (1, 2) (or as designated in shorthand form, D5Q1,2) (SEQ ID NO. 9) (filled triangles); DYDYQ-1 (SEQ ID NO. 7) (filled inverted triangles); and DYDYQ-2 (SEQ ID NO. 8) (filled diamonds).

thrombin = thrombin (Homo sapiens, UniProt P00734); test: Activation of plasma factor V by thrombin preincubated with peptide (SDS-PAGE, immunoblotting); type: biochemical; set-up: Factor Xa cleaves prothrombin to form thrombin; purchased Haematologic Technologies Inc. (Essex Junction, Vt.); details: thrombin 1 nM preincubated with 100 μM peptide, factor V 250 nM
Method: Gel Electrophoresis and western blotting. Sodium dodecyl sulfate polyacrylamide gel electrophoresis (SDS-PAGE) analyses were performed using 4-12% gradient gels according to the method of Laemmli. In several experiments, proteins were transferred to polyvinylidene difluoride (PVDF) membranes according to the method described by Towbin et al. After transfer to nitrocellulose, factor V heavy and light chain(s) were detected using the appropriate monoclonal and polyclonal antibodies. Immunoreactive fragments were visualized with chemiluminescence.
Factor V (250 nM) was incubated with thrombin (1 nM). And FIG. 4B illustrates thrombin (1 nM) was preincubated with 100 μM peptide DYDYQ and the mixture was added to factor V (250 nM). […] Fragments were identified following staining with monoclonal antibody αHFV#17 that recognizes an epitope between amino acid residues 307-506 of factor V and chemiluminescence as described. Lane 1 in both panels depicts aliquots of the mixture withdrawn from the reaction before the addition of thrombin or thrombin/peptide mixture while lanes 2-7 show aliquots of the reaction mixture withdrawn at 30 sec, 1 min, 3 min, 5 min, 10 min, 15 min following the addition of thrombin alone or of thrombin/peptide mixture. The time of incubation is shown at the bottom of the figure. Position of the molecular weight markers is indicated at left.

inhibition of activation of factor V by thrombin (cleavage at Arg709) (thrombin): inhibited
inhibition of activation of factor V by thrombin (cleavage at Arg709) (thrombin; listed as pentapeptide): potent inhibitor
Substance: DYDYQ [DYDYQ, Asp-Tyr-Asp-Tyr-Gln]
interaction with immobilized thrombin (thrombin-agarose) [1]: eluted from the column with high-salt buffer; also recorded: interact with immobilized thrombin
clotting time [2]: relatively long clotting times
